Molecules are shown by their SMILES. Converted amounts (≈) assume the structure as drawn. Where a SMILES comes first, the peptide text is derived from it. [ ]: non-standard residue; d: D form. The star is where a group is joined. OBn = c1ccc(CO*)cc1 A value given as a limit tells only on which side of the number the result lay.

Broadly, the MIC is the lowest concentration that inhibits growth of the organism. Lower therefore signals inhibition by little substance.

The first series concerns Escherichia coli. Description: Antimicrobial activity against Escherichia coli.
Conditions: not given
It counts as functional.
With `CC[C@H](C)[C@H](NC(=O)[C@H](C)NC(=O)[C@H](CCCCN)NC(=O)[C@H](CC(C)C)NC(=O)[C@H](C)NC(=O)[C@H](CCCCN)NC(=O)[C@H](Cc1cnc[nH]1)NC(=O)[C@H](CC(C)C)NC(=O)[C@@H](NC(=O)[C@H](CCCCN)NC(=O)[C@H](CCCCN)NC(=O)[C@H](CCCCN)NC(=O)[C@H](C)NC(=O)[C@H](CO)NC(=O)[C@H](CCCCN)NC(=O)[C@H](Cc1ccccc1)NC(=O)[C@@H](NC(=O)[C@H](CCCCN)NC(=O)[C@H](CC(C)C)NC(=O)[C@H](Cc1ccccc1)NC(=O)[C@H](CO)NC(=O)[C@H](CCCCN)NC(=O)[C@H](Cc1c[nH]c2ccccc12)NC(=O)[C@H](CCCCN)NC(C)=O)[C@@H](C)O)C(C)C)C(=O)N[C@@H](CO)C(=O)N[C@@H](CO)C(N)=O` (Ac-KWKSFLKTFKSAKKKVLHKALKAISS-NH2), the MIC was 2.8 µM (≈ 8.53 µg/mL).
On to `CC[C@H](C)[C@H](NC(=O)[C@H](C)NC(=O)[C@H](CCCCN)NC(=O)[C@H](CC(C)C)NC(=O)[C@H](C)NC(=O)[C@@H](NC(=O)[C@H](Cc1cnc[nH]1)NC(=O)[C@H](CC(C)C)NC(=O)[C@@H](NC(=O)[C@@H](NC(=O)[C@H](CCCCN)NC(=O)[C@@H](NC(=O)[C@H](C)NC(=O)[C@H](CO)NC(=O)[C@H](CCCCN)NC(=O)[C@H](Cc1ccccc1)NC(=O)[C@@H](NC(=O)[C@H](CCCCN)NC(=O)[C@H](CC(C)C)NC(=O)[C@H](Cc1ccccc1)NC(=O)[C@H](CO)NC(=O)[C@H](CCCCN)NC(=O)[C@H](Cc1c[nH]c2ccccc12)NC(=O)[C@H](CCCCN)NC(C)=O)[C@@H](C)O)C(C)C)[C@@H](C)O)C(C)C)[C@@H](C)O)C(=O)N[C@@H](CO)C(=O)N[C@@H](CO)C(N)=O` (Ac-KWKSFLKTFKSAVKTVLHTALKAISS-NH2), for which the lowest concentration to inhibit growth (MIC) was 2.1 µM (≈ 6.22 µg/mL). This MIC and that of the molecule before are within 1.5-fold of each other.
In turn, `CC[C@H](C)[C@H](NC(=O)[C@H](CCCCN)NC(=O)[C@H](CC(C)C)NC(=O)[C@H](C)NC(=O)[C@@H](NC(=O)[C@H](Cc1cnc[nH]1)NC(=O)[C@H](CC(C)C)NC(=O)[C@@H](NC(=O)[C@@H](NC(=O)[C@H](CCCCN)NC(=O)[C@@H](NC(=O)[C@H](C)NC(=O)[C@H](CO)NC(=O)[C@H](CCCCN)NC(=O)[C@H](Cc1ccccc1)NC(=O)[C@@H](NC(=O)[C@H](CCCCN)NC(=O)[C@H](CC(C)C)NC(=O)[C@H](Cc1ccccc1)NC(=O)[C@H](CO)NC(=O)[C@H](CCCCN)NC(=O)[C@H](Cc1c[nH]c2ccccc12)NC(=O)[C@H](CCCCN)NC(C)=O)[C@@H](C)O)C(C)C)[C@@H](C)O)C(C)C)[C@@H](C)O)C(=O)N[C@@H](CO)C(=O)N[C@@H](CO)C(N)=O` (Ac-KWKSFLKTFKSAVKTVLHTALKISS-NH2) returned an MIC of 0.89 µM (≈ 2.57 µg/mL). Against the preceding molecule, the MIC is about 2.4-fold lower.
Molecule `CC[C@H](C)[C@H](NC(=O)[C@H](C)NC(=O)[C@H](CCCCN)NC(=O)[C@H](CC(C)C)NC(=O)[C@H](C)NC(=O)[C@@H](NC(=O)[C@H](Cc1cnc[nH]1)NC(=O)[C@H](CC(C)C)NC(=O)[C@@H](NC(=O)[C@@H](NC(=O)[C@H](CCCCN)NC(=O)[C@H](NC(=O)[C@H](C)NC(=O)[C@H](CO)NC(=O)[C@H](CCCCN)NC(=O)[C@H](Cc1ccccc1)NC(=O)[C@@H](NC(=O)[C@H](CCCCN)NC(=O)[C@H](CC(C)C)NC(=O)[C@H](Cc1ccccc1)NC(=O)[C@H](CO)NC(=O)[C@H](CCCCN)NC(=O)[C@H](Cc1c[nH]c2ccccc12)NC(=O)[C@H](CCCCN)NC(C)=O)[C@@H](C)O)C(C)C)[C@@H](C)O)C(C)C)[C@@H](C)O)C(=O)N[C@@H](CO)C(=O)N[C@@H](CO)C(N)=O` (Ac-KWKSFLKTFKSA[dV]KTVLHTALKAISS-NH2) gave an MIC of 1.1 µM (≈ 3.26 µg/mL).

Tested on in the next series: not given
To be noted: erythrocyte.
For `CC[C@@H](C)[C@@H](NC(=O)[C@@H](C)NC(=O)[C@@H](CCCCN)NC(=O)[C@@H](CC(C)C)NC(=O)[C@@H](C)NC(=O)[C@H](NC(=O)[C@@H](Cc1c[nH]cn1)NC(=O)[C@@H](CC(C)C)NC(=O)[C@H](NC(=O)[C@H](NC(=O)[C@@H](CCCCN)NC(=O)[C@@H](CCCCN)NC(=O)[C@@H](C)NC(=O)[C@@H](CO)NC(=O)[C@@H](CCCCN)NC(=O)[C@@H](Cc1ccccc1)NC(=O)[C@H](NC(=O)[C@@H](CCCCN)NC(=O)[C@@H](CC(C)C)NC(=O)[C@@H](Cc1ccccc1)NC(=O)[C@@H](CO)NC(=O)[C@@H](CCCCN)NC(=O)[C@@H](Cc1c[nH]c2ccccc12)NC(=O)[C@@H](CCCCN)NC(C)=O)[C@H](C)O)[C@H](C)O)C(C)C)[C@H](C)O)C(=O)N[C@H](CO)C(=O)N[C@H](CO)C(N)=O`, the MHC was over 88.6 µM.
In the case of `CC[C@H](C)[C@H](NC(=O)[C@H](C)NC(=O)[C@H](CCCCN)NC(=O)[C@H](CC(C)C)NC(=O)[C@H](C)NC(=O)[C@H](CCCCN)NC(=O)[C@H](Cc1cnc[nH]1)NC(=O)[C@H](CC(C)C)NC(=O)[C@@H](NC(=O)[C@H](CCCCN)NC(=O)[C@H](CCCCN)NC(=O)[C@H](CCCCN)NC(=O)[C@H](C)NC(=O)[C@H](CO)NC(=O)[C@H](CCCCN)NC(=O)[C@H](Cc1ccccc1)NC(=O)[C@@H](NC(=O)[C@H](CCCCN)NC(=O)[C@H](CC(C)C)NC(=O)[C@H](Cc1ccccc1)NC(=O)[C@H](CO)NC(=O)[C@H](CCCCN)NC(=O)[C@H](Cc1c[nH]c2ccccc12)NC(=O)[C@H](CCCCN)NC(C)=O)[C@@H](C)O)C(C)C)C(=O)N[C@@H](CO)C(=O)N[C@@H](CO)C(N)=O` (Ac-KWKSFLKTFKSAKKKVLHKALKAISS-NH2), the MHC was under 2.8 µM.
In the case of `CC[C@H](C)[C@H](NC(=O)[C@H](C)NC(=O)[C@H](CCCCN)NC(=O)[C@H](CC(C)C)NC(=O)[C@H](C)NC(=O)[C@@H](NC(=O)[C@H](Cc1c[nH]cn1)NC(=O)[C@H](CC(C)C)NC(=O)[C@@H](NC(=O)[C@@H](NC(=O)[C@H](CCCCN)NC(=O)[C@@H](NC(=O)[C@H](C)NC(=O)[C@H](CO)NC(=O)[C@H](CCCCN)NC(=O)[C@H](Cc1ccccc1)NC(=O)[C@@H](NC(=O)[C@H](CCCCN)NC(=O)[C@H](CC(C)C)NC(=O)[C@H](Cc1ccccc1)NC(=O)[C@H](CO)NC(=O)[C@H](CCCCN)NC(=O)[C@H](Cc1c[nH]c2ccccc12)NC(=O)[C@H](CCCCN)NC(C)=O)[C@@H](C)O)C(C)C)[C@@H](C)O)C(C)C)[C@@H](C)O)C(=O)N[C@@H](CO)C(=O)N[C@@H](CO)C(N)=O` (Ac-KWKSFLKTFKSAVKTVLHTALKAISS-NH2), the MHC worked out at 5.2 µM.
Consider `CC[C@H](C)[C@H](NC(=O)[C@H](CCCCN)NC(=O)[C@H](CC(C)C)NC(=O)[C@H](C)NC(=O)[C@@H](NC(=O)[C@H](Cc1cnc[nH]1)NC(=O)[C@H](CC(C)C)NC(=O)[C@@H](NC(=O)[C@@H](NC(=O)[C@H](CCCCN)NC(=O)[C@@H](NC(=O)[C@H](C)NC(=O)[C@H](CO)NC(=O)[C@H](CCCCN)NC(=O)[C@H](Cc1ccccc1)NC(=O)[C@@H](NC(=O)[C@H](CCCCN)NC(=O)[C@H](CC(C)C)NC(=O)[C@H](Cc1ccccc1)NC(=O)[C@H](CO)NC(=O)[C@H](CCCCN)NC(=O)[C@H](Cc1c[nH]c2ccccc12)NC(=O)[C@H](CCCCN)NC(C)=O)[C@@H](C)O)C(C)C)[C@@H](C)O)C(C)C)[C@@H](C)O)C(=O)N[C@@H](CO)C(=O)N[C@@H](CO)C(N)=O` (Ac-KWKSFLKTFKSAVKTVLHTALKISS-NH2), for which the MHC is over 88.6 µM.
Turning to `CC[C@H](C)[C@H](NC(=O)[C@H](C)NC(=O)[C@H](CCCCN)NC(=O)[C@H](CC(C)C)NC(=O)[C@H](C)NC(=O)[C@@H](NC(=O)[C@H](Cc1c[nH]cn1)NC(=O)[C@H](CC(C)C)NC(=O)[C@@H](NC(=O)[C@@H](NC(=O)[C@H](CCCCN)NC(=O)[C@H](NC(=O)[C@H](C)NC(=O)[C@H](CO)NC(=O)[C@H](CCCCN)NC(=O)[C@H](Cc1ccccc1)NC(=O)[C@@H](NC(=O)[C@H](CCCCN)NC(=O)[C@H](CC(C)C)NC(=O)[C@H](Cc1ccccc1)NC(=O)[C@H](CO)NC(=O)[C@H](CCCCN)NC(=O)[C@H](Cc1c[nH]c2ccccc12)NC(=O)[C@H](CCCCN)NC(C)=O)[C@@H](C)O)C(C)C)[C@@H](C)O)C(C)C)[C@@H](C)O)C(=O)N[C@@H](CO)C(=O)N[C@@H](CO)C(N)=O` (Ac-KWKSFLKTFKSA[dV]KTVLHTALKAISS-NH2), the MHC amounted to 22.2 µM.
As for `N=C(N)NCCC[C@H](NC(=O)[C@@H](N)Cc1c[nH]c2ccccc12)C(=O)N[C@@H](Cc1c[nH]c2ccccc12)C(N)=O` (H-Trp-Arg-Trp-NH2), the MHC is over 500 µg/mL.
`N=C(N)NCCC[C@H](NC(=O)[C@@H](N)Cc1c[nH]c2ccccc12)C(=O)N[C@@H](Cc1c[nH]c2ccccc12)C(=O)OCc1ccccc1` (H-Trp-Arg-Trp-OBn) showed an MHC of over 500 µg/mL.
Take `CC[C@H](C)[C@H](NC(=O)CN)C(=O)NCC(=O)N[C@@H](C)C(=O)N[C@H](C(=O)N[C@@H](CC(C)C)C(=O)N[C@@H](CCCCN)C(=O)N[C@H](C(=O)N[C@@H](CC(C)C)C(=O)N[C@H](C(=O)N[C@H](C(=O)NCC(=O)N[C@@H](CC(C)C)C(=O)N1CCC[C@H]1C(=O)N[C@@H](C)C(=O)N[C@@H](CC(C)C)C(=O)N[C@H](C(=O)N[C@@H](CO)C(=O)N[C@@H](Cc1c[nH]c2ccccc12)C(=O)N[C@H](C(=O)N[C@@H](CCCCN)C(=O)N[C@@H](CCCNC(=N)N)C(=O)N[C@@H](CCCCN)C(=O)N[C@@H](CCCNC(=N)N)C(=O)N[C@@H](CCC(N)=O)C(=O)N[C@@H](CCC(N)=O)C(N)=O)[C@@H](C)CC)[C@@H](C)CC)[C@@H](C)O)[C@@H](C)O)C(C)C)C(C)C` [MELITTIN]: the MHC was 0.78 µM.

The values are drawn from ChEMBL document CHEMBL1671744 (Antimicrob Agents Chemother, 2010).
